Data as given in patent publication US20060069132A1, “Azolecarboxamide herbicides” (priority 2004, published 2006).

Legend:
[1] = test system: smallflower umbrella sedge; experiment: Test C flooded paddy test; type: in vivo, Cyperus difformis; settings: for Plant response rating, Sedge, Umbrella: 500 g ai/ha, visual rating after 12 to 14 days
common ragweed = experiment: Test C pre-/postemergence herbicide test; type: in vivo, Ambrosia elatior; parameters: key to Plant response rating, Ragweed: 0 = no effect, 100 = complete control
Outline: (§1)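 Emerged plants at the 1- to 4-leaf stage (2–18 cm), or freshly planted seeds, received test chemicals in a non-phytotoxic solvent mixture with surfactant. Response was visually scored against controls after 12 to 14 days in the greenhouse, on a 0 (no effect) to 100 (complete control) scale.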

kochia = experiment: Test C pre-/postemergence herbicide test; type: in vivo, Kochia scoparia
Outline: as §1

lambsquarters = experiment: Test C pre-/postemergence herbicide test; type: in vivo, Chenopodium album
Outline: as §1

cocklebur = experiment: Test C pre-/postemergence herbicide test; type: in vivo, Xanthium strumarium; settings: for Cocklebur plant response rating: Preemergence, scale 0 to 100, 0 no effect, 100 complete control
Outline: as §1

morningglory = experiment: Test C pre-/postemergence herbicide test; type: in vivo, Ipomoea coccinea; parameters: key to Plant response rating, Morningglory: 0 = no effect, 100 = complete control; settings: for Plant response rating, Morningglory: preemergence
Outline: as §1

ducksalad = experiment: Test C flooded paddy test; type: in vivo, Heteranthera limosa; settings: for Plant response rating, Ducksalad: 500 g ai/ha, visual rating after 12 to 14 days
[2] = 125 g ai/ha, scale 0 to 100 (0 no effect, 100 complete control)
[3] = 250 g ai/ha, scale of 0 to 100, 0 is no effect, 100 is complete control
[4] = scale 0 to 100 (0 no effect, 100 complete control)
[5] = 62 g ai/ha, preemergence, scale 0 to 100
[6] = 250 g ai/ha, scale 0-100, preemergence
[7] = 500 g ai/ha, scale 0 to 100 (0 no effect, 100 complete control), visual, 12 to 14 days, preemergence
[8] = 125 g ai/ha, scale 0 (no effect) to 100 (complete control), visual, 12 to 14 days, preemergence
[9] = 125 g ai/ha, scale 0 (no effect) to 100 (complete control), visual, 12 to 14 days
[10] = 500 g ai/ha, scale 0 to 100 (0 no effect, 100 complete control), visual, 12 to 14 days
[11] = 62 g ai/ha, scale 0 to 100 (0 no effect, 100 complete control)
[12] = Preemergence, 500 g ai/ha, scale 0 to 100, 0 no effect, 100 complete control

For CCn1nc(C2(C)CC2)cc1C(=O)Nc1cc(C(=O)N2CC=CC2)ccc1F [Compound 301], the “Sedge, Umbrella plant response rating” value ([1]; 62 g ai/ha, scale 0 to 100) was 80, the “Sedge, Umbrella plant response rating” value [1, 2] was 90 and the “Sedge, Umbrella plant response rating” value [1, 3] was 90. The “Plant response rating, Sedge, Umbrella” value [1, 4] was 95, the “Plant response rating, Ragweed” value (common ragweed; [5]) was 10 and the “Plant response rating, Ragweed” value (common ragweed; [6]) was 65. For the same compound, the “Plant response rating, Ragweed” value (common ragweed; [7]) was 70, the “Plant response rating, Kochia” value (kochia; [5]) was 100 and the “Plant response rating, Kochia” value (kochia; [8]) was 100. The “Plant response rating, Kochia” value (kochia; [6]) was 100, the “Plant response rating, Kochia” value (kochia; [7]) was 100 and the “Plant response rating, Lambsquarters” value (lambsquarters; [5]) was 100. For the same compound, the “Plant response rating, Lambsquarters” value (lambsquarters; [8]) was 100, the “Plant response rating, Lambsquarters” value (lambsquarters; [6]) was 100 and the “Plant response rating, Lambsquarters” value (lambsquarters; [7]) was 100. The “Plant response rating, Cocklebur” value (cocklebur; [5]) was 0, the “Plant response rating, Cocklebur” value (cocklebur; [8]) was 0 and the “Plant response rating, Cocklebur” value (cocklebur; [6]) was 0. The “Cocklebur plant response rating” value (cocklebur; 500 g ai/ha) was 60, the “Plant response rating, Morningglory” value (morningglory; 62 g ai/ha, scale 0 to 100) was 5 and the “Plant response rating, Morningglory” value (morningglory; [9]) was 5. For the same compound, the “Plant response rating, Morningglory” value (morningglory; 250 g ai/ha, scale 0-100) was 10, the “Plant response rating, Morningglory” value (morningglory; [10]) was 60 and the “Ducksalad plant response rating” value (ducksalad; 62 g ai/ha, scale 0 to 100) was 85. The “Ducksalad plant response rating” value (ducksalad; [2]) was 90, the “Ducksalad plant response rating” value (ducksalad; [3]) was 90 and the “Plant response rating, Ducksalad” value (ducksalad; [4]) was 95.
In the case of CCNC(=O)c1ccc(F)c(NC(=O)c2cn(C(C)(C)C)nc2CC)c1 [Compound 193], the “Sedge, Umbrella plant response rating” value [1, 11] is reported as 75, the “Sedge, Umbrella plant response rating” value [1, 2] is reported as 75 and the “Sedge, Umbrella plant response rating” value [1, 3] is reported as 80. For the same compound, the “Plant response rating, Sedge, Umbrella” value [1, 4] was 85, the “Plant response rating, Ragweed” value (common ragweed; [5]) was 0 and the “Plant response rating, Ragweed” value (common ragweed; [8]) was 100. For the same compound, the “Plant response rating, Ragweed” value (common ragweed; [6]) was 100, the “Ragweed plant response rating” value (common ragweed; [12]) was 100 and the “Plant response rating, Kochia” value (kochia; [5]) was 85. The “Plant response rating, Kochia” value (kochia; [8]) was 85, the “Plant response rating, Kochia” value (kochia; [6]) was 100 and the “Kochia plant response rating” value (kochia; [12]) was 100. The “Plant response rating, Lambsquarters” value (lambsquarters; [5]) was 50, the “Plant response rating, Lambsquarters” value (lambsquarters; [8]) was 100 and the “Plant response rating, Lambsquarters” value (lambsquarters; [6]) was 100. For the same compound, the “Lambsquarters plant response rating” value (lambsquarters; [12]) was 100, the “Plant response rating, Cocklebur” value (cocklebur; [5]) was 0 and the “Cocklebur plant response rating” value (cocklebur; 500 g ai/ha) was 100. For the same compound, the “Plant response rating, Morningglory” value (morningglory; 62 g ai/ha, scale 0 to 100) was 20, the “Plant response rating, Morningglory” value (morningglory; [9]) was 20 and the “Plant response rating, Morningglory” value (morningglory; 250 g ai/ha, scale 0-100) was 100. The “Morningglory plant response rating” value (morningglory; [12]) was 100, the “Ducksalad plant response rating” value (ducksalad; [11]) was 55 and the “Ducksalad plant response rating” value (ducksalad; [2]) was 70. The “Ducksalad plant response rating” value (ducksalad; [3]) was 90 and the “Plant response rating, Ducksalad” value (ducksalad; [4]) was 90.
With CCc1nn(C(C)C)nc1C(=O)Nc1cccc(C(=O)N2CCCCC2)c1 [Compound 385] the “Sedge, Umbrella plant response rating” value ([1]; 62 g ai/ha, scale 0 to 100) was 75, the “Sedge, Umbrella plant response rating” value [1, 2] was 75 and the “Sedge, Umbrella plant response rating” value [1, 3] was 80. For the same compound, the “Plant response rating, Sedge, Umbrella” value [1, 4] was 85, the “Plant response rating, Ragweed” value (common ragweed; [5]) was 0 and the “Plant response rating (0 = no effect, 100 = complete control), Ragweed” value (common ragweed; 125 g ai/ha, preemergence) was 20. The “Plant response rating, Ragweed” value (common ragweed; [6]) was 90, the “Plant response rating, Ragweed” value (common ragweed; [7]) was 95 and the “Plant response rating, Kochia” value (kochia; [5]) was 0. The “Plant response rating (0 = no effect, 100 = complete control), Kochia” value (kochia; 125 g ai/ha, preemergence) was 70, the “Plant response rating, Kochia” value (kochia; [6]) was 85 and the “Plant response rating, Kochia” value (kochia; [7]) was 100. The “Plant response rating, Lambsquarters” value (lambsquarters; [5]) was 75, the “Plant response rating (0 = no effect, 100 = complete control), Lambsquarters” value (lambsquarters; 125 g ai/ha, preemergence) was 100 and the “Plant response rating, Lambsquarters” value (lambsquarters; [6]) was 100. For the same compound, the “Plant response rating, Lambsquarters” value (lambsquarters; [7]) was 100, the “Plant response rating, Cocklebur” value (cocklebur; [5]) was 0 and the “Plant response rating (0 = no effect, 100 = complete control), Cocklebur” value (cocklebur; 125 g ai/ha, preemergence) was 0. The “Plant response rating, Cocklebur” value (cocklebur; [6]) was 100, the “Plant response rating, Cocklebur” value (cocklebur; [7]) was 100 and the “Plant response rating, Morningglory” value (morningglory; 62 g ai/ha, scale 0 to 100) was 15. For the same compound, the “Plant response rating, Morningglory” value (morningglory; 250 g ai/ha, scale 0-100) was 65, the “Plant response rating, Morningglory” value (morningglory; [10]) was 100 and the “Ducksalad plant response rating” value (ducksalad; 62 g ai/ha, scale 0 to 100) was 0. For the same compound, the “Ducksalad plant response rating” value (ducksalad; [3]) was 70 and the “Plant response rating, Ducksalad” value (ducksalad; [4]) was 75.
